Results on 1 sequence are retold here after US12528840B2, “Transcription active complex targeting cancer drug from viral protein sequence” (The Regents of the University of California, priority 2020, dated 2026).

The test system of one test is CD14+ monocytes. The experiment in a line: CD14+ monocyte live/dead staining. The format is cell-based. Particulars: 16 or 32 μM, 2 days; PBS, LPS, polyIC conditions; vs control peptide or PBS. On the procedure: FIG. 13. Effect of MBK50 on CD14+ monocytes. FIG. 13(a) A scheme of the experimental procedure. CD14+ monocytes were prepared with magnetic beads from the PBMC of healthy donors. Cells were washed and cultured at 1×10^6/ml in a 96 well plate (200 μl/well in triplicates) without or with LPS (100 ng/ml) or poly I:C (10 μg/ml) in the presence of MBK (16 or 32 μM) or mutant peptide (32 μM) for 2 days. Live cells were determined using live/dead staining followed by flow cytometry analysis. FIG. 13(b) A representative flow profile with the gating strategy for live cells is shown. FIG. 13(c) Averages percentage of live cells for each culture condition are shown. **p<0.01, ***p<0.001, ****p<0.0001
Monocytic cells are important antigen-presenting cells bridging innate and antigen-specific immune responses. To evaluate the effect of MBK on monocytic cells, CD14+ monocytes were prepared with magnetic beads from the PBMC of healthy donors. Cells were washed and cultured at 1×10^6/ml in a 96 well plate (200 μl/well in triplicates) without or with LPS (100 ng/ml) or poly I:C (10 μg/ml) in the presence of MBK (16 or 32 μM) or mutant peptide (32 μM) for 2 days. Live cells were determined using live/dead staining, followed by flow cytometry analysis.

Another test has as its system CD19+ B cells. In words: CD19+ B cell response to sCD40L, live/dead staining. The format is cell-based. Particulars: 32 μM, sCD40L 1 μg/ml, 2 days. On the procedure:
CD19^+ B cells were isolated with magnetic beads from PBMC of a healthy donor (n=1). Cells were washed and cultured at 1×10^6/ml in a 96 well plate (200 μl/well in triplicates) without or with sCD40L (1 μg/ml) in the presence of MBK50 (16 or 32 μM) or mutant peptide (32 μM) for 2 days. Live cells were determined as shown in FIG. 3 left panel using live/dead-red staining (live cells are gated as red-staining negative population). […] The peptide drug targets actively replicating B-cells that is consistent with MBK50 targeting MYC.

For a further test, the system named is MYC. In words: qRT-PCR of MYC expression. The test is classed as cell-based. The conditions noted are these: qRT-PCR with specific primers. Here is the method:
FIGS. 1A-H. Viral protein sequence based cancer drug. (FIG. 1A) Discovery of hijacking transcription machinery in KSHV reactivating cells (Chen et al., J. Virol 2017). […] (FIG. 1B) Reporter assay. KSHV ORF50 overexpression inhibits MYC activation. (FIG. 1C) Chromatin immunoprecipitation with Mass Spectrometry. Proteins inducibly interact with both ORF50 and RNA polII are shown. […] (FIG. 1E) Mapping of interacting domain. GST-pull down was performed to identify NCoA2 binding domains. Purified NCoA2 was made from recombinant baculovirus infected cells and KSHV ORF50 deletion proteins were made in E. coli. Peptides are then generated as TAT-fusion for cell penetration. (FIG. 1F) ChIP-seq and RNA-seq. ChIP-seq was performed to identify NCOA2 target genes in primary effusion lymphoma cells. NCoA2 localization is highly associated with active genes and localizes with RNA pol II at enhancer regions. […] The qRT-PCR was performed with specific primers. (FIG. 1H) Gene set enrichment analyses (GSEA). RNA sequencing was performed with peptide-treated PEL cells. […] (FIG. 1I) The peptide drug. Wt peptide or mutant peptide was incubated in culture media. Forty-eight hours later, live cells were measured by applying MTS. Cell viability was compared with no-treated samples. No treated sample was set as 1.

A further test concerns activated CD3 T cells. The experiment in a line: Cytokine production by anti-CD3 stimulated PBMCs (Luminex 10 plex). The format is cell-based, human. Particulars: 32 μM, 48 hours, vs untreated and control peptide-treated cultures. Here is the method:
The effect of the peptide on cytokine production by human lymphoctyes were studied by an in vitro culture system. PBMCs were stimulated with anti-CD3 antibody in the presence of PBS, MBK50 (32 μM) or Mutant peptide (32 μM) in duplicates for 48 hours. The supernatant was recovered and assayed for 10 common cytokines 4-1(3, IL-2, IL-4, IL-5, IL-6, IL-8, IL-10, GM-CSF, IFNγ, TNFα) with Luminex using human 10 plex beads assay kit (Invitrogen).

In the case of LSSILQGLYQLDT [MBK50], the “percentage of live cells” value in the test on CD14+ monocytes is given as “significantly reduced”. In addition, in the test with CD19+ B cells, the live cell % entry is reported as “reduced” and the total cell numbers result is reported as “increased”. The MYC expression result in the test on MYC is listed as “Down modulation”. In addition, in the test on activated CD3 T cells, the “cytokine levels in supernatant, all detected except IL-10 and TNFα” value is “significantly reduced”.
